In patent US8921362B2, “6,7-dialkoxy quinazoline derivatives and methods of treating drug resistant and other tumors” (Natco Pharma Limited, priority 2008, dated 2014):

What was measured:
Test in all cases: KinomeScan
Assay type in all cases: binding
Settings in all cases: read-out: % Ctrl @ 10000 nM
ABL1(H396P) = molecular target: T1, ABL1(H396P) (Homo sapiens, UniProt P00519, H396P)
T1 construct: host or cells: E. coli (BL21-derived), T7 phage lysate
Outline: (§1)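 Lysates from phage-infected E. coli (32° C., shaking until lysis) were filtered and exposed to biotin-blocked ligand beads together with test compound. Eluted phage was counted by quantitative PCR.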

ACVR1 = molecular target: T2, ACVR1 (Homo sapiens, UniProt Q04771)
T2 construct: host or cells: E. coli (BL21-derived), T7 phage lysate
Outline: as §1

BRAF(V600E) = molecular target: T3, BRAF(V600E) (Homo sapiens, UniProt P15056, V600E)
T3 construct: host or cells: E. coli host derived from BL21
Outline: as §1

BRK = molecular target: T4, BRK (Homo sapiens, UniProt Q13882)
T4 construct: host or cells: E. coli host derived from BL21
Outline: as §1

CAMK1 = molecular target: T5, CAMK1 (Homo sapiens, UniProt Q14012)
T5 construct: host or cells: E. coli host derived from BL21
Outline: as §1

CAMK2D = molecular target: T6, CAMK2D (Homo sapiens, UniProt Q13557)
T6 construct: host or cells: E. coli host derived from BL21
Outline: as §1

CAMKK2 = molecular target: T7, CAMKK2 (Homo sapiens, UniProt Q96RR4)
T7 construct: host or cells: T7 phage in E. coli host derived from BL21
Outline: as §1

CDK5 = molecular target: T8, CDK5 (Homo sapiens, UniProt Q00535)
T8 construct: host or cells: T7 phage in E. coli host derived from BL21
Outline: as §1

DAPK1 = molecular target: T9, DAPK1 (Homo sapiens, UniProt P53355)
T9 construct: purchased Ambit Biosciences Corp (KinomeScan); host or cells: T7 phage in E. coli host derived from BL21
Outline: as §1

DCAMKL3 = molecular target: T10, DCAMKL3 (Homo sapiens, UniProt Q9C098)
T10 construct: purchased Ambit Biosciences Corp (KinomeScan); host or cells: T7 phage in E. coli host derived from BL21
Outline: as §1

EGFR = molecular target: T11, EGFR (Homo sapiens, UniProt P00533)
T11 construct: purchased Ambit Biosciences Corp (KinomeScan); host or cells: T7 phage in E. coli host derived from BL21
Outline: as §1

ERK2 = molecular target: T12, ERK2 (Homo sapiens, UniProt P28482)
T12 construct: purchased Ambit Biosciences Corp; host or cells: T7 phage in E. coli host derived from BL21
Outline: as §1

ERK5 = molecular target: T13, ERK5 (Homo sapiens, UniProt Q13164)
T13 construct: purchased Ambit Biosciences Corp; host or cells: T7 phage in E. coli host derived from BL21
Outline: as §1

FGFR4 = molecular target: T14, FGFR4 (Homo sapiens, UniProt P22455)
T14 construct: host or cells: T7 phage in E. coli host derived from BL21
Outline: as §1

FYN = molecular target: T15, FYN (Homo sapiens, UniProt P06241)
T15 construct: host or cells: T7 phage in E. coli host derived from BL21
Outline: as §1

GSK3B = molecular target: T16, GSK3B (Homo sapiens, UniProt P49841)
T16 construct: host or cells: T7 phage in E. coli host derived from BL21
Outline: as §1

[1] = molecular target: T17, JAK1(JH2domain-pseudokinase) (Homo sapiens, UniProt P23458)
T17 construct: JAK1(JH2domain-pseudokinase); host or cells: T7 phage grown in E. coli host derived from BL21
Outline: as §1

LKB1 = molecular target: T18, LKB1 (Homo sapiens, UniProt Q15831)
T18 construct: host or cells: E. coli host derived from the BL21 strain, infected with T7 phage
Outline: as §1

MEK6 = molecular target: T19, MEK6 (Homo sapiens, UniProt P52564)
T19 construct: host or cells: E. coli host derived from the BL21 strain, infected with T7 phage
Outline: as §1

MST1 = molecular target: T20, MST1 (Homo sapiens, UniProt Q13043)
T20 construct: host or cells: T7 phage grown in E. coli host derived from BL21
Outline: as §1

MST4 = molecular target: T21, MST4 (Homo sapiens, UniProt Q9P289)
T21 construct: host or cells: T7 phage grown in E. coli host derived from BL21
Outline: as §1

NLK = molecular target: T22, NLK (Homo sapiens, UniProt Q9UBE8)
T22 construct: host or cells: E. coli host derived from BL21, infected with T7 phage
Outline: as §1

PHKG1 = molecular target: T23, PHKG1 (Homo sapiens, UniProt Q16816)
T23 construct: host or cells: E. coli host derived from BL21, infected with T7 phage
Outline: as §1

PIK3CD = molecular target: T24, PIK3CD (Homo sapiens, UniProt O00329)
T24 construct: host or cells: T7 phage in E. coli host derived from BL21
Outline: as §1

PKAC-beta = molecular target: T25, PKAC-beta (Homo sapiens, UniProt P22694)
T25 construct: host or cells: T7 phage in E. coli host derived from BL21
Outline: as §1

PRKCE = molecular target: T26, PRKCE (Homo sapiens, UniProt Q02156)
T26 construct: host or cells: T7 phage in E. coli host derived from BL21
Outline: as §1

PRKCQ = molecular target: T27, PRKCQ (Homo sapiens, UniProt Q04759)
T27 construct: host or cells: T7 phage in E. coli host derived from BL21
Outline: as §1

RIOK3 = molecular target: T28, RIOK3 (Homo sapiens, UniProt O14730)
T28 construct: host or cells: E. coli host derived from BL21, T7 phage display
Outline: as §1

RIPK4 = molecular target: T29, RIPK4 (Homo sapiens, UniProt P57078)
T29 construct: host or cells: E. coli host derived from BL21, T7 phage display
Outline: as §1

[2] = molecular target: T30, RPS6KA4(Kin.Dom.-2-C-terminal) (Homo sapiens, UniProt O75676)
T30 construct: RPS6KA4(KIN.DOM.2); host or cells: E. coli host derived from BL21, T7 phage display
Outline: as §1

TIE1 = molecular target: T31, TIE1 (Homo sapiens, UniProt P35590)
T31 construct: host or cells: T7 phage grown in E. coli (BL21-derived)
Outline: as §1

ULK3 = molecular target: T32, ULK3 (Homo sapiens, UniProt Q6PHR2)
T32 construct: host or cells: E. coli host derived from BL21, T7 phage
Outline: as §1

WEE1 = molecular target: T33, WEE1 (Homo sapiens, UniProt P30291)
T33 construct: host or cells: E. coli host derived from BL21, T7 phage
Outline: as §1

T2 sequence (Q04771 21-509): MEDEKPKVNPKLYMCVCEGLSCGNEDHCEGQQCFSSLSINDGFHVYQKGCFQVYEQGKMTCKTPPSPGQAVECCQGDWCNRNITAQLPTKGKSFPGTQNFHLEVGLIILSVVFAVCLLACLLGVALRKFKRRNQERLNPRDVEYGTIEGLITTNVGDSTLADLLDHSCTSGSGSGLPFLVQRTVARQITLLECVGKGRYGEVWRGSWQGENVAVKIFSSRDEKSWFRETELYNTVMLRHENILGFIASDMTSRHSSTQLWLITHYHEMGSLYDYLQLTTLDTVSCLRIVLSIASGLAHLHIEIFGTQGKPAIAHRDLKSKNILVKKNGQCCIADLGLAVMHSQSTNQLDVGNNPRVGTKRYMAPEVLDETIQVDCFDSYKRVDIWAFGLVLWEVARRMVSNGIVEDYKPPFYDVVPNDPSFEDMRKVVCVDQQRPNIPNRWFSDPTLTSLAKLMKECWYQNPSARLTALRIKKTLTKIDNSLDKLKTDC
T24 sequence (O00329 whole entry): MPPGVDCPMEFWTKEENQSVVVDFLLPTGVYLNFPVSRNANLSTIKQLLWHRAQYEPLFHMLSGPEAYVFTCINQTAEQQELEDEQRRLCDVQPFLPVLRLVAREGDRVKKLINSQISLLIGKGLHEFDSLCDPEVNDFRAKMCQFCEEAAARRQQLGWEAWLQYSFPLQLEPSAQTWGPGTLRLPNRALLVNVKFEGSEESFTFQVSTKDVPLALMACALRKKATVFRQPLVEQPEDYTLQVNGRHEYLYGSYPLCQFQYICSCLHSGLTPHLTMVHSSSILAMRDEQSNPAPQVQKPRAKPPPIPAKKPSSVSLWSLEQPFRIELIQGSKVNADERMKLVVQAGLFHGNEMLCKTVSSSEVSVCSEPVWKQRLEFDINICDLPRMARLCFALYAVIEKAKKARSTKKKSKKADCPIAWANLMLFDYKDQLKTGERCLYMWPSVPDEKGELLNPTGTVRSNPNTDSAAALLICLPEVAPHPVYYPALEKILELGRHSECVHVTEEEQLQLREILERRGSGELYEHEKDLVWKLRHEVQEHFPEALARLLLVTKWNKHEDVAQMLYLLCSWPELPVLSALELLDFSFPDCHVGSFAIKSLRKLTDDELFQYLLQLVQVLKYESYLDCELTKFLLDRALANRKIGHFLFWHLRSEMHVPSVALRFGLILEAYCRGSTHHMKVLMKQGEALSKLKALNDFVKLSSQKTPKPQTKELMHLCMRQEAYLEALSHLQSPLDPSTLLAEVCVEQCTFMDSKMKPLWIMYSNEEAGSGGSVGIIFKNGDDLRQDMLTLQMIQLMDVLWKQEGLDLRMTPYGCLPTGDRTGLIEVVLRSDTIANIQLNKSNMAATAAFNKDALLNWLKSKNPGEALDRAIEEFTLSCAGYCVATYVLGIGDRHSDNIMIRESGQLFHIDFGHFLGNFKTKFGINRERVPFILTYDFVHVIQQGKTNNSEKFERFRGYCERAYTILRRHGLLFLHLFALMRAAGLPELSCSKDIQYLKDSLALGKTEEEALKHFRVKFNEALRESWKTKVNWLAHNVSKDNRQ
T11 sequence (P00533 25-1210): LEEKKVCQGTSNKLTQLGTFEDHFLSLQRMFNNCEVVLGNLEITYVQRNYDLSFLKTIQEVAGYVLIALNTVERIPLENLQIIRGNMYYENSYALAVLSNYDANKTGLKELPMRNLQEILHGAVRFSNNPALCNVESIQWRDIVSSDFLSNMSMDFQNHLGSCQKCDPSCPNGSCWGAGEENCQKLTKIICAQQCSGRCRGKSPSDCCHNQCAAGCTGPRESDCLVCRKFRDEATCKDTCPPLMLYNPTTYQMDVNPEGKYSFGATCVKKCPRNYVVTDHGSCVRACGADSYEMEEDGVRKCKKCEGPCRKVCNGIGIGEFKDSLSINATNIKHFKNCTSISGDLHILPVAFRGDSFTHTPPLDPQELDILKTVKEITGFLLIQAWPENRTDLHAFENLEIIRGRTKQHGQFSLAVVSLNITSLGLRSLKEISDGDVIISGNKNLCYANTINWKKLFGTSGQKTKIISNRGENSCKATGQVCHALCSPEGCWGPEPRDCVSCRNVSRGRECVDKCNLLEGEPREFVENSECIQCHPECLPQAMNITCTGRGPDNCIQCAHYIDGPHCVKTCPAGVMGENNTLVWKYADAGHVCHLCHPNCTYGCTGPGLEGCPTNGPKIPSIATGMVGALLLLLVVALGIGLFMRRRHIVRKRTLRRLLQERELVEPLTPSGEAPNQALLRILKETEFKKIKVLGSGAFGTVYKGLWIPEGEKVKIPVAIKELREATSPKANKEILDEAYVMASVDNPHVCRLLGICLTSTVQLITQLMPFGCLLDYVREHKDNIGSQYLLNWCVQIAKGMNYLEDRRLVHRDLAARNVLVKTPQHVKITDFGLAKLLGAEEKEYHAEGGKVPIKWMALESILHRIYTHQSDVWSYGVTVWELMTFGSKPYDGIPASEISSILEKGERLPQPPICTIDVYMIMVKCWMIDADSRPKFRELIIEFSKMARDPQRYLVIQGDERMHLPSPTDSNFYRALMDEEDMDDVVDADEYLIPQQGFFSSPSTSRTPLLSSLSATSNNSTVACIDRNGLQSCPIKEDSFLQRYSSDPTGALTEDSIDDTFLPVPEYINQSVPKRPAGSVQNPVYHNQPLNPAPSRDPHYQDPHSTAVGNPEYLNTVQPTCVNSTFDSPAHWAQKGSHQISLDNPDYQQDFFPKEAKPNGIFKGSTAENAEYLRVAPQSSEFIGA
T26 sequence (Q02156 whole entry): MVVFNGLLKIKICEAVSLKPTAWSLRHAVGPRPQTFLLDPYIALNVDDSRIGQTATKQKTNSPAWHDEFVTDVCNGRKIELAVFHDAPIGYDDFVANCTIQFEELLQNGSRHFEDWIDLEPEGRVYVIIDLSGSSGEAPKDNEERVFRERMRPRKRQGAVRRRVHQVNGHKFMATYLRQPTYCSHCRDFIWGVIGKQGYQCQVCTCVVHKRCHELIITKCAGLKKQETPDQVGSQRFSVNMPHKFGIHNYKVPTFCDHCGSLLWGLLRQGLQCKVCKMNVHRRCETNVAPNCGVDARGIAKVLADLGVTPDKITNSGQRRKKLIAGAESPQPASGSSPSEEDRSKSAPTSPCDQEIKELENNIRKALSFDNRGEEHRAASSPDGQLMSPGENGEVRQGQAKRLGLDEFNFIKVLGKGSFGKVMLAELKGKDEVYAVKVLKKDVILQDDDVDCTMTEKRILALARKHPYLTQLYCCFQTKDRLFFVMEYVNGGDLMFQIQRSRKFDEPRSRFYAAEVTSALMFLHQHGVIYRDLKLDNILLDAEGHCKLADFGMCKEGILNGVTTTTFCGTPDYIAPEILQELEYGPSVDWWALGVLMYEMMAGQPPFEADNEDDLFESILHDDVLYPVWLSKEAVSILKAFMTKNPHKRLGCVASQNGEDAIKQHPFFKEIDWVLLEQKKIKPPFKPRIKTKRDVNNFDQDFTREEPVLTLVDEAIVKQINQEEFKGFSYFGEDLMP
T13 sequence (Q13164 whole entry): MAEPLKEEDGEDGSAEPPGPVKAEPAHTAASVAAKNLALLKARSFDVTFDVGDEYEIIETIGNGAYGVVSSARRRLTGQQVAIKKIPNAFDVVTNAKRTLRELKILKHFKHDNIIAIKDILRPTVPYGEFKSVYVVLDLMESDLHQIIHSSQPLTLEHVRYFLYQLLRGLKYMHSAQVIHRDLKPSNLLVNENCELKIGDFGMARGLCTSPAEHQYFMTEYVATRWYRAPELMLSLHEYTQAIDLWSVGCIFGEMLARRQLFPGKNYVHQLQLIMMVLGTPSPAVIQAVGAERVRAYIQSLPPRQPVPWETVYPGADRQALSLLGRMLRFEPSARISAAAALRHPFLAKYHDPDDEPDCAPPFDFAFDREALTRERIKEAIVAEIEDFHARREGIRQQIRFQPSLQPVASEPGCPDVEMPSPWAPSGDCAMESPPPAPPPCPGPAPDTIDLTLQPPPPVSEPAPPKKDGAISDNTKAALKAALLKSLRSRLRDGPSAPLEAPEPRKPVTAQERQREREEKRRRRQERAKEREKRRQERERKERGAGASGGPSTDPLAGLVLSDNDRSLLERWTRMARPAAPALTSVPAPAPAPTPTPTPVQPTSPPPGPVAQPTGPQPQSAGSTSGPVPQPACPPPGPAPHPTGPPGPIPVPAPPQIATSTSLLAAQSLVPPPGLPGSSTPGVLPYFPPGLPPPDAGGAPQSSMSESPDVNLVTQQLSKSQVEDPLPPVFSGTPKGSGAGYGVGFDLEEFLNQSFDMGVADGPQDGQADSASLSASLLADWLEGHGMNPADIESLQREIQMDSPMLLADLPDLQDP
T18 sequence (Q15831 whole entry): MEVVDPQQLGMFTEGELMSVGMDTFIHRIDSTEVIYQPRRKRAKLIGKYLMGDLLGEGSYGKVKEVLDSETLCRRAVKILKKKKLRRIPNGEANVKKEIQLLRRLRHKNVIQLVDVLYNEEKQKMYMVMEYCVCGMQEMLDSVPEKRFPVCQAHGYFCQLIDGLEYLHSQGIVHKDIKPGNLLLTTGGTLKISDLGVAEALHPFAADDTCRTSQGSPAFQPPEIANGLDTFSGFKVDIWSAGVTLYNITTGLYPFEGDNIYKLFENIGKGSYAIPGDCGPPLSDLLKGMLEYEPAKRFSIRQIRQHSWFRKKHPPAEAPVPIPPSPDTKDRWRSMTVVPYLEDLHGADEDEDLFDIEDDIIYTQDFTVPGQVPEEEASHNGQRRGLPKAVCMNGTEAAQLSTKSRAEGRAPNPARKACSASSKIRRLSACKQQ
T12 sequence (P28482 whole entry): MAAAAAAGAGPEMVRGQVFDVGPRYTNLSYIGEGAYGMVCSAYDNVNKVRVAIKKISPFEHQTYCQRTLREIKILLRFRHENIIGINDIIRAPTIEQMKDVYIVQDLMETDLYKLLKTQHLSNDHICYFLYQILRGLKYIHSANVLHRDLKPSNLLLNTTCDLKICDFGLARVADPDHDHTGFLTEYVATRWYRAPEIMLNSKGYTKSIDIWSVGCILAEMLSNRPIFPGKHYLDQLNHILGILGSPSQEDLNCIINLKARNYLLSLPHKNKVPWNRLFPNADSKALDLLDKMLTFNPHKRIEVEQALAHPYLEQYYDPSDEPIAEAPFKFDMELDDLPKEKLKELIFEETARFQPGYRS

Question: What does the source list for `C#Cc1cccc(Nc2ncnc3cc(OC)c(OCCCN4CCOCC4)cc23)c1` [NRC-2694, N-(3-ethynylphenyl)-7-methoxy-6-[3-(4-morpholinyl)propoxy]-4-quinazolinamine]?
Answer: remaining binding at 10 µM (ABL1(H396P)): 34%; remaining binding at 10 µM (ACVR1): 61%; remaining binding at 10 µM (BRAF(V600E)): 73%; remaining binding at 10 µM (BRK): 46%; remaining binding at 10 µM (CAMK1): 65%; remaining binding at 10 µM (CAMK2D): 35%; remaining binding at 10 µM (CAMKK2): 60%; remaining binding at 10 µM (CDK5): 100%; remaining binding at 10 µM (DAPK1): 26%; remaining binding at 10 µM (DCAMKL3): 14%; remaining binding at 10 µM (EGFR): 0%; remaining binding at 10 µM (ERK2): 100%; remaining binding at 10 µM (ERK5): 90%; remaining binding at 10 µM (FGFR4): 69%; remaining binding at 10 µM (FYN): 41%; remaining binding at 10 µM (GSK3B): 100%; remaining binding at 10 µM [1]: 81%; remaining binding at 10 µM (LKB1): 69%; remaining binding at 10 µM (MEK6): 75%; remaining binding at 10 µM (MST1): 100%; remaining binding at 10 µM (MST4): 29%; remaining binding at 10 µM (NLK): 55%; remaining binding at 10 µM (PHKG1): 50%; remaining binding at 10 µM (PIK3CD): 89%; remaining binding at 10 µM (PKAC-beta): 88%; remaining binding at 10 µM (PRKCE): 65%; remaining binding at 10 µM (PRKCQ): 83%; remaining binding at 10 µM (RIOK3): 37%; remaining binding at 10 µM (RIPK4): 96%; remaining binding at 10 µM [2]: 8.9%; remaining binding at 10 µM (TIE1): 52%; remaining binding at 10 µM (ULK3): 62%; remaining binding at 10 µM (WEE1): 74%
